Reference: patent US20200196637A1, “COMPOSITION FOR PREVENTION OR TREATMENT OF MILD COGNITIVE […] […] […] AS ACTIVE INGREDIENT” (priority 2016, published 2020)

Test system: APOE-gene deficient mice (BALB/c.KOR/StmSlc-Apoe^shl)
Assay: Y maze test of spacial working memory
Assay type: in vivo
Settings: intake from age of 8 weeks, examined 250 days later (10-month old)
Experimental: The wild type mice used were BALB/cCrSlc and the APOE-gene deficient mice used were BALB/c.KOR/StmSlc-Apoe^shl.
The cognitive function was measured by the Y maze test (Conrad C D. et al., Brain Res. 1997; 759:76-83). Its principle is as follows. Animals placed in the center of 3 arms in the Y-shape start exploratory behavior after a while. Normal animals rarely return to the arm once explored and explore different arms in turn with the help of marks seen out of the maze. However, model animals with declined space recognition and/or memory go to the same place many times and enter the arm that the animal entered the last time again. In the Y maze test, the order of the arms that an animal entered during a certain period of time is measured and the percentage of the number of times (percent alternation) when the mouse entered all different arms in a consecutive raw of three times as an indicator of space recognition and memory.
Powder feed containing 0.1 g of MgH2 in 1 kg of MF powder feed (a product manufactured by Oriental Yeast Co., ltd.) was produced and the animals were allowed to take the feed freely. […] The control feed was feed containing 0.22 g of Mg(OH)2 per 1 kg of MF powder feed. The feed was changed with fresh feed five times a week.
The control mice were placed for 1 hour in a chamber containing the air five times a week.

[HH] [hydrogen gas]
spacial working memory (percent alternation, Y maze, FIG. 4): the decline of spacial working memory was decreased

[H-].[H-].[Mg+2] [MgH2, magnesium hydride]
spacial working memory (percent alternation, Y maze, FIG. 4): the decline of spacial working memory was decreased
